Experimental data: patent US20170050939A1, “SMALL MOLECULE INHIBITORS OF G PROTEIN COUPLED RECEPTOR 6 KINASE POLYPEPTIDES” (Mayo Foundation for Medical Education and Research, priority 2014, published 2017)
Where two headings read alike, the source gives them in different places.

Molecular target: T1, GRK6, recombinant full-length GST-tagged human protein (Homo sapiens, UniProt P43250)
T1 construct: GRK6, recombinant full-length GST-tagged human protein; GST
Assay: GRK6 IC50 determination (8-point concentration-response)
Type: biochemical
Source text: Two hundred forty compounds were further characterized by determining IC50 values in a GRK6 assay. This screen has been previously described in WO 2013/063458, which is incorporated by reference in its entirety herein.

[1] = 20 nM GRK6, 12 μM ATP (Km), 1 μM Peptide 216, 7 h incubation

T1 sequence (P43250 whole entry): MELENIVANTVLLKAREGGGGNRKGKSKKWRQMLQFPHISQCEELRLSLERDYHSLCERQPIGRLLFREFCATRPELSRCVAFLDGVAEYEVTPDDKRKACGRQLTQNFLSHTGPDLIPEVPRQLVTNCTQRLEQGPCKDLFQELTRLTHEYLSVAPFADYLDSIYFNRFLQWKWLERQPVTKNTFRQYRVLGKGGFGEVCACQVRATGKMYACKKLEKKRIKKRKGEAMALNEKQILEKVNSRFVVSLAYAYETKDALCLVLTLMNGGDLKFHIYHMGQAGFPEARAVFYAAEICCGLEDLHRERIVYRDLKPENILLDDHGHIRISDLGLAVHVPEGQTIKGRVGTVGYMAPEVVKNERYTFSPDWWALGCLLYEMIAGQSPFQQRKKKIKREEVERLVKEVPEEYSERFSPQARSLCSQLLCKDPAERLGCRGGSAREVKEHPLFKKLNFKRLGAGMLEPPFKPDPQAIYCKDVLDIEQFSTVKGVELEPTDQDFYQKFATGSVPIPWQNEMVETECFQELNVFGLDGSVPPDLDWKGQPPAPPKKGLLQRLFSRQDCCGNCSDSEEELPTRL

Compound | IC50 [µM] | IC50 [1] [µM]
COc1ccc(NC(=O)c2cccc(-c3nnc(SCC(=O)O)[nH]3)c2)cc1 [Compound 170] | 21.3 | 
COc1cc(-c2nnc(SCC(=O)O)[nH]2)ccc1F [Compound 114] | 4.62 | 
O=C(O)CSc1nnc(-c2ccc3[nH]cnc3c2)[nH]1 [Compound 125] | 6.45 | 
O=C(O)CSc1nnc(-c2ccc(-c3ccccc3)cc2)[nH]1 [Compound 133] |  | 7.37
COc1ccc2cc(-c3nnc(SCC(=O)O)[nH]3)ccc2c1 [Compound 76] | 0.653 | 
O=C(O)CSc1nnc(-c2cc(Br)ccc2O)[nH]1 [Compound 89] |  | 1.05
O=C(O)CSc1nnc(-c2ccc(N3CCCC3=O)cc2)[nH]1 [Compound 157] |  | 15.4
O=C(O)CSc1nnc(-c2cc(-c3ccc(C(F)(F)F)nc3)cc(-c3ccc4ccccc4c3)c2)[nH]1 [Compound 70] | 2.73 | 
O=C(O)CSc1nnc(-c2cccc(C(=O)Nc3ccc4c(c3)NC(=O)C4)c2)[nH]1 [Compound 105] | 3.33 | 
COc1ccc(-c2nnc(SCC(=O)O)[nH]2)cc1O [Compound 152] |  | 13.3
O=C(O)CS(=O)(=O)c1nnc(-c2ccccc2)[nH]1 [Compound 210] | > 100 | 
COc1ccc(-c2nnc(SCC(=O)O)[nH]2)cc1C [Compound 118] |  | 4.99
O=C(O)CSc1nnc(-c2cccc(C(F)(F)F)c2)[nH]1 [Compound 101] |  | 3.02
COc1ccc(-c2cc(-c3ccc4ccccc4c3)cc(-c3nnc(SCC(=O)O)[nH]3)c2)cn1 [Compound 66] | 1.08 | 
COc1ccc(Br)cc1-c1nnc(SCC(=O)O)[nH]1 [Compound 192] |  | 87
O=C(O)CSc1nnc(-c2cccc(C(=O)Nc3ccc4c(c3)NC(=O)CC4)c2)[nH]1 [Compound 160] | 17.3 | 
O=C(O)CSc1nnc(-c2cccc(C(=O)Nc3ccccc3)c2)[nH]1 [Compound 149] | 11.8 | 
O=C(O)CSc1nnc(-c2cc(Br)cc([N+](=O)[O-])c2)n1CC(=O)O [Compound 120] | 5.06 | 
COc1cncc(-c2cc(-c3ccc4ccccc4c3)cc(-c3nnc(SCC(=O)O)[nH]3)c2)c1 [Compound 46] | 0.461 | 
O=C(O)CSc1nnc(-c2cccc3cnccc23)[nH]1 [Compound 175] | 29.6 | 
CN(C)c1ccc(-c2nnc(SCC(=O)O)[nH]2)c([N+](=O)[O-])c1 [Compound 183] |  | 40
O=C(O)CSc1nnc(-c2c(O)ccc3ccccc23)[nH]1 [Compound 224] | > 80 | 
O=C(O)CSc1nnc(-c2ccc3c(c2)OC(F)(F)O3)[nH]1 [Compound 136] | 7.93 | 
O=C(O)CSc1nnc(-c2cccc3c2OCO3)[nH]1 [Compound 164] | 18.5 | 

Compound | IC50 [µM] | IC50 [1] [µM]
COc1cc(-c2nnc(SCC(=O)O)[nH]2)cc(OC)c1OC [Compound 137] |  | 8.23
O=C(O)CSc1nnc(-c2ccc(O)c(F)c2)[nH]1 [Compound 131] |  | 7.3
O=C(O)CSc1nnc(-c2cccc(C(=O)Nc3cccc4[nH]ccc34)c2)[nH]1 [Compound 143] | 9.82 | 
CN(C)Cc1ccc(-c2nnc(SCC(=O)O)[nH]2)cc1 [Compound 184] |  | 40
Cc1cc(C=O)c(O)c(-c2nnc(SCC(=O)O)[nH]2)c1 [Compound 185] |  | 45.3
O=C(O)CSc1nnc(-c2cccc(N3CCNCC3)c2)[nH]1 [Compound 171] |  | 21.9
COc1cc(-c2nnc(SCC(=O)O)[nH]2)ccc1OC(=O)C1CC1 [Compound 139] |  | 8.83
CC(C)Oc1ccc(-c2nnc(SCC(=O)O)n2CC(=O)O)cc1[N+](=O)[O-] [Compound 193] | > 200 | 
CCSc1ccc(-c2nnc(SCC(=O)O)[nH]2)cc1 [Compound 141] |  | 8.84
O=C(O)CSc1nnc(-c2cc(NC(=O)c3ccco3)cc(-c3ccc4ccccc4c3)c2)[nH]1 [Compound 59] | 0.768 | 
Cc1cncc(-c2cc(-c3ccc4ccccc4c3)cc(-c3nnc(SCC(=O)O)[nH]3)c2)c1 [Compound 34] | 0.349 | 
COc1ccncc1-c1cc(-c2ccc3ccccc3c2)cc(-c2nnc(SCC(=O)O)[nH]2)c1 [Compound 36] | 0.352 | 
O=C(O)CSc1nnc(-c2cccc(C(=O)NCc3ccccc3)c2)[nH]1 [Compound 176] | 33.3 | 
COc1ncccc1-c1cc(-c2ccc3ccccc3c2)cc(-c2nnc(SCC(=O)O)[nH]2)c1 [Compound 68] | 1.58 | 
O=C(O)CSc1nnc(-c2ccc(O)cc2O)[nH]1 [Compound 147] |  | 11.6
CN1CCOc2cc(-c3nnc(SCC(=O)O)[nH]3)ccc21 [Compound 166] | 20.2 | 
O=C(O)CSc1nnc(-c2cc(O)ccc2O)[nH]1 [Compound 123] |  | 6.16
Cc1ccc(-c2nnc(SCC(=O)O)[nH]2)c(O)c1 [Compound 129] |  | 6.88
Cc1noc(C)c1-c1cc(-c2ccc3ccccc3c2)cc(-c2nnc(SCC(=O)O)[nH]2)c1 [Compound 65] | 1.02 | 
O=C(O)CSc1nnc(-c2cccc(C(=O)Nc3ccc4cn[nH]c4c3)c2)[nH]1 [Compound 130] | 6.93 | 
O=C(O)CSc1nnc(-c2cc3c(cc2[N+](=O)[O-])OCO3)[nH]1 [Compound 212] | > 58 | 
O=C(O)CSc1nnc(-c2ccc(-c3cncnc3)cc2)[nH]1 [Compound 134] |  | 7.45
COC(=O)c1ccc(-c2nnc(SCC(=O)O)[nH]2)cc1 [Compound 142] |  | 9.56
CC(C)Oc1ccc(-c2nnc(SCC(=O)O)[nH]2)cc1N [Compound 190] | 80.6 | 

Results, then the compound that gave them:

IC50 [µM] | IC50 [1] [µM] | Compound
0.262 |  | CC(=O)Nc1ccc(-c2cc(-c3nnc(SCC(=O)O)[nH]3)cc([N+](=O)[O-])c2)cc1 [Compound 27]
 | 1.4 | O=C(O)CSc1nnc(-c2cccc([N+](=O)[O-])c2)[nH]1 [Compound 92]
0.499 |  | Cn1c(-c2ccccc2)cc2cc(-c3cc(-c4nnc(SCC(=O)O)[nH]4)cc([N+](=O)[O-])c3)ccc21 [Compound 48]
0.05 |  | Cn1ccc2ccc(-c3cc(-c4nnc(SCC(=O)O)[nH]4)cc([N+](=O)[O-])c3)cc21 [Compound 1]
0.267 |  | Cc1cc2cc(-c3cc(-c4nnc(SCC(=O)O)[nH]4)cc([N+](=O)[O-])c3)ccc2n1C [Compound 234]
0.431 |  | Cn1ccc(-c2cc(-c3nnc(SCC(=O)O)[nH]3)cc([N+](=O)[O-])c2)n1 [Compound 75]
0.935 |  | O=C(O)CSc1nnc(-c2ccc(OCc3ccccc3)c([N+](=O)[O-])c2)[nH]1 [Compound 86]
0.275 |  | O=C(O)CSc1nnc(-c2cc(-c3ccc4c(c3)OCO4)cc([N+](=O)[O-])c2)[nH]1 [Compound 30]
0.351 |  | CC(=O)Nc1cc(-c2ccc3ccccc3c2)cc(-c2nnc(SCC(=O)O)[nH]2)c1 [Compound 35]
0.742 |  | O=C(O)CSc1nnc(-c2cc(-c3cc[nH]n3)cc([N+](=O)[O-])c2)[nH]1 [Compound 78]
 | 5.85 | COc1cccc(-c2nnc(SCC(=O)O)[nH]2)c1 [Compound 121]
0.168 |  | N#Cc1cc(-c2ccc3ccccc3c2)cc(-c2nnc(SCC(=O)O)[nH]2)c1 [Compound 17]
0.212 |  | O=C(O)CSc1nnc(-c2cc(-c3cccc(O)c3)cc([N+](=O)[O-])c2)[nH]1 [Compound 24]
 | 15.9 | COc1cc(-c2nnc(SCC(=O)O)[nH]2)cc([N+](=O)[O-])c1O [Compound 158]
0.178 |  | N#CCc1cc(-c2ccc3ccccc3c2)cc(-c2nnc(SCC(=O)O)[nH]2)c1 [Compound 18]
0.15 |  | Cc1cn(C)c2ccc(-c3cc(-c4nnc(SCC(=O)O)[nH]4)cc([N+](=O)[O-])c3)cc12 [Compound 230]
0.75 |  | Cc1nn(C)cc1-c1cc(-c2nnc(SCC(=O)O)[nH]2)cc([N+](=O)[O-])c1 [Compound 79]

IC50 [µM] | IC50 [1] [µM] | Compound
0.518 |  | CN(C)c1ccc(-c2cc(-c3nnc(SCC(=O)O)[nH]3)cc([N+](=O)[O-])c2)cc1 [Compound 52]
0.0923 |  | O=C(O)CSc1nnc(-c2cc(-c3cccc(-c4cc[nH]n4)c3)cc([N+](=O)[O-])c2)[nH]1 [Compound 7]
0.379 |  | O=C(O)CSc1nnc(-c2cc(-c3cn[nH]c3)cc([N+](=O)[O-])c2)[nH]1 [Compound 74]
0.184 |  | O=C(O)CSc1nnc(-c2cc(-c3ccc4scnc4c3)cc([N+](=O)[O-])c2)[nH]1 [Compound 20]
0.93 |  | O=C(O)CSc1nnc(-c2cc(-c3ccc4c(c3)[nH]c3ccccc34)cc([N+](=O)[O-])c2)[nH]1 [Compound 240]
0.15 |  | Cc1cc(-c2cc(-c3nnc(SCC(=O)O)[nH]3)cc([N+](=O)[O-])c2)cc2ccn(C)c12 [Compound 231]
0.442 |  | Cc1ccc2cc(-c3cc(-c4nnc(SCC(=O)O)[nH]4)cc([N+](=O)[O-])c3)ccc2c1 [Compound 238]
0.269 |  | CN1CCOc2cc(-c3cc(-c4nnc(SCC(=O)O)[nH]4)cc([N+](=O)[O-])c3)ccc21 [Compound 29]
0.786 |  | CC(C)(O)c1ccc(-c2cc(-c3nnc(SCC(=O)O)[nH]3)cc([N+](=O)[O-])c2)cc1 [Compound 61]
0.122 |  | O=C(O)CSc1nnc(-c2cc(-c3ccc4cc[nH]c4c3)cc([N+](=O)[O-])c2)[nH]1 [Compound 12]
 | 6.8 | O=C(O)CSc1nnc(-c2ccc(O)c([N+](=O)[O-])c2)[nH]1 [Compound 128]
14.4 |  | Cc1cccc(-c2nnc(SCC(=O)O)[nH]2)c1 [Compound 156]
0.114 |  | O=C(O)CSc1nnc(-c2cc(-c3cccc4[nH]ncc34)cc([N+](=O)[O-])c2)[nH]1 [Compound 10]
0.184 |  | Cn1ncc2cc(-c3cc(-c4nnc(SCC(=O)O)[nH]4)cc([N+](=O)[O-])c3)ccc21 [Compound 21]
0.779 |  | CS(=O)(=O)c1cccc(-c2cc(-c3nnc(SCC(=O)O)[nH]3)cc([N+](=O)[O-])c2)c1 [Compound 60]
3.3 |  | CC(C)Oc1ccc(-c2nnc(SCC(=O)O)[nH]2)cc1[N+](=O)[O-] [Compound 104]
0.14 |  | Cn1ccc2c(-c3cc(-c4nnc(SCC(=O)O)[nH]4)cc([N+](=O)[O-])c3)cccc21 [Compound 16]
